# Results taken from patent EP0020955A1, “Geometrical isomers of 4,4-dimethyl-1-phenyl-2-(1,2,4-triazole-1-yl)-1-penten-3-ols, process for their preparation and medicament containing them” (BAYER AG, priority 1979, dated 1981).
# Experiments:
# Trichophyton mentagr. = assay: Antifungal in vitro activity, agar dilution test (MIC); format: cell-based, Trichophyton mentagrophytes; conditions: Kimmig agar, inoculum 2 - 5 x 10^3 fungal particles per spot, dermatophytes 96 h, 27°C
# Text: (§1) Versuchsbeschreibung: • Die in-vitro-Wirksamkeit - gemessen anhand der minimalen Hemmkonzentration - wurde im Agarverdünnungstest ermittelt. Auf Serien von Kimmig - Agarplatten, die die entsprechenden Wirkstoffkonzentrationen im Agar gelöst enthielten, wurden mit Hilfe eines automatischen Beimpfungsgerätes Proben der Keimsuspesionen tropfenförmig aufgebracht. Das Inokulum betrug 2 - 5 x 10^3 Pilzpartikel pro Impfpunkt. Im Falle der Hefen lag die Bebrütungsdauer bei 24 Stunden, im Falle der Dermatophyten bei 96 Stunden; Bebrütungstemperatur 27°C.
# Microsporon canis = assay: as above; format: cell-based; conditions: Kimmig agar, inoculum 2 - 5 x 10^3 fungal particles per spot, dermatophytes 96 h, 27°C
# Text: as §1
# Candida albicans = assay: as above; format: cell-based; conditions: Kimmig agar, inoculum 2 - 5 x 10^3 fungal particles per spot, yeasts 24 h, 27°C
# Text: as §1
# Torulopsis glabrata = assay: as above; format: cell-based; conditions: Kimmig agar, inoculum 2 - 5 x 10^3 fungal particles per spot, yeasts 24 h, 27°C
# Text: as §1
# Aspergillus fumigatus = assay: as above; format: cell-based; conditions: Kimmig agar, inoculum 2 - 5 x 10^3 fungal particles per spot, 27°C
# Text: as §1
# [1] = tested on: Trichophyton mentagrophytes; assay: Antimicrobial in vivo activity (local and oral) in experimental guinea pig trichophytosis; parameters: species or system Meerschweinchen der Rasse Pirbright-white; conditions: for Wirkung lokale Therapie (1%-ige Lösung): local, 1 x daily from day 3 p.i., 1% solution in Dimethylsulfoxid : Glycerin = 1 : 4
# Text: Versuchsbeschreibung: • Weiße Meerschweinchen der Rasse Pirbright-white werden auf dem geschorenen, nicht skarifizierten Rücken mit einer Mikro- und Makrokonidien-Suspension von Trichophyton mentagrophytes infiziert. Bei unbehandelten Tieren entwickelt sich innerhalb 12 Tagen p.i. das typische Bild einer Dermatophytose mit Rötung, Schuppung und Haarausfall bis zum totalen Integument-Defekt an der Infektionsstelle. […]
# Candida-Zellen = assay: Antimicrobial in vivo activity (oral) in mouse candidosis; parameters: species or system Mäuse vom Typ SPF-CF; conditions: mice infected i.v. with Candida; 12,5 bis 25mg/kg 2 x daily over 5 days oral; survivors on day 6 p.i.
# Experimental: Mäuse vom Typ SPF-CF werden intravenös mit 1-2 x 10^6 1 logarithmisch wachsenden Candida-Zellen, suspendiert in physiologischer Kochsalzlösung, infiziert. Die Tiere werden mit Dosierungen von 12,5 bis 25mg/kg Körpergewicht 2 x täglich über 5 Tage oral behandelt.
# Unbehandelte Tiere starben 3 bis 6 Tage post infektionem. Die Ueberlebensrate am 6.Tag post infektionem betrug bei unbehandelten Kontrolltieren etwa 5 %.
Molecule,Minimale Hemmkonzentration (Trichophyton mentagr.) [µg/mL],Minimale Hemmkonzentration (Microsporon canis) [µg/mL],Minimale Hemmkonzentration (Candida albicans) [µg/mL],Minimale Hemmkonzentration (Torulopsis glabrata) [µg/mL],Minimale Hemmkonzentration (Aspergillus fumigatus) [µg/mL],Wirkung lokale Therapie (1%-ige Lösung) [1],Wirkung (Candida-Zellen),"MIC (Torulopsis glabrata; Nakaseomyces glabratus, 24 h, read-out: Minimale Hemmkonzentration) [µg/mL]","Wirkung orale Therapie (50mg/kg/die) ([1]; oral, 1 x daily from day of infection, aqueous solution)"
"1-(4-Chlorphenyl)-4,4-dimethyl-2-(1,2,4-triazol-1-yl)-1-penten-3-ol [geometrisches Isomerengemisch (bekannt)]",<1,8,8,4,8,schwache Wirkung,+++ (Wirkung = ≥60% Ueberlebende am 6.Tag p.i.),–,–
"CC(C)(C)C(O)C(=Cc1ccc(Cl)cc1)n1cncn1 (single isomer, unassigned) [Form A, 1-(4-Chlorphenyl)-4,4-dimethyl-2-(1,2,4-triazol-1-yl)-1-penten-3-ol]",4,32,4,–,32,–,kW (keine Wirkung),1,–
"CC(C)(C)C(O)C(=Cc1ccc(Cl)cc1)n1cncn1 (single isomer, unassigned) [Form B(1), 1-(4-Chlorphenyl)-4,4-dimethyl-2-(1,2,4-triazol-1-yl)-1-penten-3-ol]",<1,<1,<1,<1,1 to 4,sehr gute Wirkung,+++++ (sehr gute Wirkung = >95% Ueberlebende am 6.Tag p.i.),–,sehr gute Wirkung
